The source of these data is patent US20260365647A1, “AKT1 MODULATORS” (Alterome Therapeutics, Inc., priority 2022, published 2026).

In this test the target is T1, AKT1-E17K (Homo sapiens, UniProt P31749, E17K).
T1 construct: host or cells: HEK-293 (ATCC CRL-1573)
Put plainly: NanoBRET Target Engagement (TE) Assay. Format: cell-based. Put shortly:
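Live cells transiently expressing NanoLuc-AKT1 E17K fusion, incubated 2 h with tracer and compound before substrate plus extracellular NanoLuc inhibitor were added. BRET read at 450/600 nm; EC50 from variable-slope sigmoidal fit of tracer displacement.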
In general terms: Bioluminescence resonance energy transfer reports proximity on the nanometre scale.

As a reminder, the IC50 is the midpoint of a concentration-inhibition curve. Low readings indicate greater potency in that assay, high ones weaker potency in that assay.

T1 sequence (P31749 whole entry E17K): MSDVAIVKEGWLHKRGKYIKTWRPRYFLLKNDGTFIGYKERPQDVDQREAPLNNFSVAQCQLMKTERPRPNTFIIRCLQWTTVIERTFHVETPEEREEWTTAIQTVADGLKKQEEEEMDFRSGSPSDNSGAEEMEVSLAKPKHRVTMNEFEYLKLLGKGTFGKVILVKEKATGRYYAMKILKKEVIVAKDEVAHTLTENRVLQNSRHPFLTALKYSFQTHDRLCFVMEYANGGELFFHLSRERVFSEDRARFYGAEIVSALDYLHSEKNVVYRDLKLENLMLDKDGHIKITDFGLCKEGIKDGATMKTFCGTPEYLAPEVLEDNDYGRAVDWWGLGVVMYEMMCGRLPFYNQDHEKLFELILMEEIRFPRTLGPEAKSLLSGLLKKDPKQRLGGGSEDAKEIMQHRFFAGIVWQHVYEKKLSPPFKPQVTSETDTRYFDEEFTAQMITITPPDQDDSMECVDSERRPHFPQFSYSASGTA

Turning to `Nc1ncccc1-c1nc2ccc(-c3ccccc3)nc2n1-c1ccc(CN2CCCC(NC(=O)c3ccc(O)c(C=O)c3)CC2)cc1` (centres unmarked) [Example 115, N-(1-(4-(2-(2-Aminopyridin-3-yl)-5-phenyl-3H-imidazo[4,5-b]pyridin-3-yl)benzyl)azepan-4-yl)-3-formyl-4-hydroxybenzamide], the IC50 fell in the range of 15 to 60 nM.

The compound `Nc1ncccc1-c1nc2ccc(-c3ccccc3)nc2n1-c1ccc(CN2CCCN(C(=O)c3ccc(O)c(C=O)c3)CC2)cc1` [Example 119, 5-(4-(4-(2-(2-Aminopyridin-3-yl)-5-phenyl-3H-imidazo[4,5-b]pyridin-3-yl)benzyl)-1,4-diazepane-1-carbonyl)-2-hydroxybenzaldehyde] showed a 50% inhibitory concentration (IC50) of 15 to 60 nM.

`N#Cc1ccccc1-c1ccc2nc(-c3cccnc3N)n(-c3ccc(CN4CCN(C(=O)c5ccc(O)c(C=O)c5)CC4)cc3)c2n1` [Example 36, 2-(2-(2-aminopyridin-3-yl)-3-(4-((4-(3-formyl-4-hydroxybenzoyl)piperazin-1-yl)methyl)phenyl)-3H-imidazo[4,5-b]pyridin-5-yl)benzonitrile] registered an IC50 of over 600 nM.

The compound `Nc1ncccc1-c1nc2ccc(-c3ccccc3)nc2n1-c1ccc(CN2C[C@@H]3CN(C(=O)c4ccc(C=O)c(O)c4)C[C@@H]3C2)cc1` [Example 132, 4-((3aR,6aS)-5-(4-(2-(2-Aminopyridin-3-yl)-5-phenyl-3H-imidazo[4,5-b]pyridin-3-yl)benzyl)octahydropyrrolo[3,4-c]pyrrole-2-carbonyl)-2-hydroxybenzaldehyde] gave an IC50 of 60 to 600 nM.

`Nc1ncccc1-c1nc2ccc(N3CCOCC3)nc2n1-c1ccc(CN2CCN(C(=O)c3ccc(C=O)c(O)c3)CC2)cc1` [Example 33, 4-(4-(4-(2-(2-Aminopyridin-3-yl)-5-morpholino-3H-imidazo[4,5-b]pyridin-3-yl)benzyl)piperazine-1-carbonyl)-2-hydroxybenzaldehyde] had an IC50 of over 600 nM.

Compound `Nc1ncccc1-c1nc2ccc(-c3ccccc3)nc2n1-c1ccc(CN2CCCN(c3ccc(C=O)c(O)c3)CC2)cc1` [Example 120, 4-(4-(4-(2-(2-Aminopyridin-3-yl)-5-phenyl-3H-imidazo[4,5-b]pyridin-3-yl)benzyl)-1,4-diazepan-1-yl)-2-hydroxybenzaldehyde] returned a half-maximal inhibitory concentration (IC50) of 15 to 60 nM.

`Nc1ncccc1-c1nc2ccc(-c3ccccc3)nc2n1-c1ccc(CN2CCC[C@@H](NC(=O)c3ccc(O)c(C=O)c3)C2)cc1` [Example 58, (R)—N-(1-(4-(2-(2-Aminopyridin-3-yl)-5-phenyl-3H-imidazo[4,5-b]pyridin-3-yl)benzyl)piperidin-3-yl)-3-formyl-4-hydroxybenzamide] returned a half-inhibitory concentration (IC50) of 15 to 60 nM.

The compound `CN(c1ccc(C=O)c(O)c1)C1CCN(Cc2ccc(-n3c(-c4cccnc4N)nc4ccc(-c5ccccc5)nc43)cc2)CC1` [Example 57, 4-((1-(4-(2-(2-Aminopyridin-3-yl)-5-phenyl-3H-imidazo[4,5-b]pyridin-3-yl)benzyl)piperidin-4-yl)(methyl)amino)-2-hydroxybenzaldehyde] showed an IC50 of 60 to 600 nM.

Regarding `Nc1ncccc1-c1nc2ccc(-c3ccccc3)nc2n1-c1ccc(CN2CCCC(NC(=O)c3ccc(C=O)c(O)c3)CC2)cc1` (centres unmarked) [Example 116, N-(1-(4-(2-(2-aminopyridin-3-yl)-5-phenyl-3H-imidazo[4,5-b]pyridin-3-yl)benzyl)azepan-4-yl)-4-formyl-3-hydroxybenzamide], the IC50 lay within 60 to 600 nM.

Consider `Nc1ncccc1-c1nc2ccc(-c3ccccc3)nc2n1-c1ccc(CN2CCC[C@@H](NC(=O)c3ccc(C=O)c(O)c3)C2)cc1` [Example 63, (R)—N-(1-(4-(2-(2-Aminopyridin-3-yl)-5-phenyl-3H-imidazo[4,5-b]pyridin-3-yl)benzyl)piperidin-3-yl)-4-formyl-3-hydroxybenzamide], for which the IC50 was in the range of 60 to 600 nM.

In turn, `Nc1ncccc1-c1nc2ccc(-c3ccccc3F)nc2n1-c1ccc(CN2CCN(C(=O)c3ccc(C=O)c(O)c3)CC2)cc1` [Example 142, 4-(4-(4-(2-(2-Aminopyridin-3-yl)-5-(2-fluorophenyl)-3H-imidazo[4,5-b]pyridin-3-yl)benzyl)piperazine-1-carbonyl)-2-hydroxybenzaldehyde] came in with an IC50 of over 600 nM.

Take `Nc1ncccc1-c1nc2ccc(-c3ccccc3)nc2n1-c1ccc(CN2CCN(c3cc(O)c(C=O)cc3Br)CC2)cc1` [Example 27, 4-(4-(4-(2-(2-Aminopyridin-3-yl)-5-phenyl-3H-imidazo[4,5-b]pyridin-3-yl)benzyl)piperazin-1-yl)-5-bromo-2-hydroxybenzaldehyde]: the IC50 lay in the range of 60 to 600 nM.

Regarding `Nc1ncccc1-c1nc2ccc(N3CCOCC3)nc2n1-c1ccc(CN2CCC(NC(=O)c3ccc(C=O)c(O)c3)CC2)cc1` [Example 53, N-(1-(4-(2-(2-Aminopyridin-3-yl)-5-morpholino-3H-imidazo[4,5-b]pyridin-3-yl)benzyl)piperidin-4-yl)-4-formyl-3-hydroxybenzamide], the half-inhibitory concentration (IC50) lay in the range of 60 to 600 nM.

`Nc1ncccc1-c1nc2ccc(-c3ccccc3)nc2n1-c1ccc(CN2CCC(Oc3ccc(O)c(C=O)c3)CC2)cc1` [Example 130, 5-((1-(4-(2-(2-Aminopyridin-3-yl)-5-phenyl-3H-imidazo[4,5-b]pyridin-3-yl)benzyl)piperidin-4-yl)oxy)-2-hydroxybenzaldehyde] registered an IC50 of 60 to 600 nM.

`C=Cc1cc(C=O)c(O)cc1N1CCN(Cc2ccc(-n3c(-c4cccnc4N)nc4ccc(-c5ccccc5)nc43)cc2)CC1` [Example 28, 4-(4-(4-(2-(2-Aminopyridin-3-yl)-5-phenyl-3H-imidazo[4,5-b]pyridin-3-yl)benzyl)piperazin-1-yl)-2-hydroxy-5-vinylbenzaldehyde] registered an IC50 of 60 to 600 nM.

As for `Nc1ncccc1-c1nc2ccc(-c3ccccc3)nc2n1-c1ccc(CN2CCC3(CC2)CN(c2ccc(C=O)c(O)c2)C3)cc1` [Example 73, 4-(7-(4-(2-(2-Aminopyridin-3-yl)-5-phenyl-3H-imidazo[4,5-b]pyridin-3-yl)benzyl)-2,7-diazaspiro[3.5]nonan-2-yl)-2-hydroxybenzaldehyde], the IC50 lay in the range of 60 to 600 nM.

Consider `Nc1ncccc1-c1nc2ccc(-c3ccccc3)nc2n1-c1ccc(CN2CC[C@@]3(CCN(C(=O)c4ccc(C=O)c(O)c4)C3)C2)cc1` [Example 99, (R)-4-(7-(4-(2-(2-aminopyridin-3-yl)-5-phenyl-3H-imidazo[4,5-b]pyridin-3-yl)benzyl)-2,7-diazaspiro[4.4]nonane-2-carbonyl)-2-hydroxybenzaldehyde], for which the IC50 is 60 to 600 nM.

With `Nc1ncccc1-c1nc2ccc(-c3ccccc3)nc2n1-c1ccc(CN2CCC3(CCN(C(=O)c4ccc(C=O)c(O)c4)CC3)C2)cc1` [Example 90, 4-(2-(4-(2-(2-Aminopyridin-3-yl)-5-phenyl-3H-imidazo[4,5-b]pyridin-3-yl)benzyl)-2,8-diazaspiro[4.5]decane-8-carbonyl)-2-hydroxybenzaldehyde], the IC50 lay within 60 to 600 nM.

As to `CN(C(=O)c1ccc(C=O)c(O)c1)C1CCN(Cc2ccc(-n3c(-c4cccnc4N)nc4ccc(-c5ccccc5)nc43)cc2)CC1` [Example 60, N-(1-(4-(2-(2-Aminopyridin-3-yl)-5-phenyl-3H-imidazo[4,5-b]pyridin-3-yl)benzyl)piperidin-4-yl)-4-formyl-3-hydroxy-N-methylbenzamide], the 50% inhibitory concentration (IC50) fell in the range of 60 to 600 nM.

In the case of `Cn1cc(-c2ccc3nc(-c4cccnc4N)n(-c4ccc(CN5CCN(C(=O)c6ccc(O)c(C=O)c6)CC5)cc4)c3n2)ccc1=O` [Example 44, 5-(4-(4-(2-(2-aminopyridin-3-yl)-5-(1-methyl-6-oxo-1,6-dihydropyridin-3-yl)-3H-imidazo[4,5-b]pyridin-3-yl)benzyl)piperazine-1-carbonyl)-2-hydroxybenzaldehyde], the IC50 was over 600 nM.

The compound `Nc1ncccc1-c1nc2ccc(-c3ccccc3)nc2n1-c1ccc(CN2CCN(c3cc(O)c(C=O)cc3F)CC2)cc1` [Example 25, 4-(4-(4-(2-(2-Aminopyridin-3-yl)-5-phenyl-3H-imidazo[4,5-b]pyridin-3-yl)benzyl)piperazin-1-yl)-5-fluoro-2-hydroxybenzaldehyde] returned a half-maximal inhibitory concentration (IC50) of 15 to 60 nM.

`Nc1ncccc1-c1nc2ccc(-c3ccccc3)nc2n1-c1ccc(CN2CCC(NC(=O)c3ccc(C=O)c(O)c3)CC2)cc1` [Example 8, N-(1-(4-(2-(2-Aminopyridin-3-yl)-5-phenyl-3H-imidazo[4,5-b]pyridin-3-yl)benzyl)piperidin-4-yl)-4-formyl-3-hydroxybenzamide] gave an IC50 of 60 to 600 nM.

For `Nc1ncccc1-c1nc2ccc(-c3ccccc3)nc2n1-c1ccc(CN2CCC3(CCN(C(=O)c4ccc(O)c(C=O)c4)C3)C2)cc1` (centres unmarked) [Example 80, 5-(7-(4-(2-(2-Aminopyridin-3-yl)-5-phenyl-3H-imidazo[4,5-b]pyridin-3-yl)benzyl)-2,7-diazaspiro[4.4]nonane-2-carbonyl)-2-hydroxybenzaldehyde], the IC50 lay in the range of 60 to 600 nM.

In turn, `Nc1ncccc1-c1nc2ccc(N3CCOCC3)nc2n1-c1ccc(CN2CCN(c3ccc(C=O)c(O)c3)CC2)cc1` [Example 31, 4-(4-(4-(2-(2-Aminopyridin-3-yl)-5-morpholino-3H-imidazo[4,5-b]pyridin-3-yl)benzyl)piperazin-1-yl)-2-hydroxybenzaldehyde] yielded an IC50 of 60 to 600 nM.

For the compound `Nc1ncccc1-c1nc2ccc(-c3ccccc3)nc2n1-c1ccc(CN2CCCCC(NC(=O)c3ccc(C=O)c(O)c3)C2)cc1` (centres unmarked) [Example 118, N-(1-(4-(2-(2-Aminopyridin-3-yl)-5-phenyl-3H-imidazo[4,5-b]pyridin-3-yl)benzyl)azepan-3-yl)-4-formyl-3-hydroxybenzamide], the IC50 was over 600 nM.

`Nc1ncccc1-c1nc2ccc(-c3ccccc3)nc2n1-c1ccc(CN2CCC3(CCN(c4ccc(O)c(C=O)c4)C3)C2)cc1` (centres unmarked) [Example 83, 5-(7-(4-(2-(2-Aminopyridin-3-yl)-5-phenyl-3H-imidazo[4,5-b]pyridin-3-yl)benzyl)-2,7-diazaspiro[4.4]nonan-2-yl)-2-hydroxybenzaldehyde] returned an IC50 of 60 to 600 nM.
